# Results from PubChem BioAssay AID248 (DTP/NCI, 2004).
# “And” between values parts separate entries of the source, which are not always exact repeats. Equal values may be shown once. Toxic doses and inconclusive results are not listed.
# System: L1210 leukemia ip in BDF1 mice, survival T/C
# Assay: NCI In Vivo Anticancer Drug Screen. Data for tumor model L1210 Leukemia (intraperitoneal) in B6D2F1 (BDF1) mice
# Details: endpoint: mean survival time, higher = longer survival
# In short: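 Ratio derived from survival: compound-dosed mice over vehicle-dosed mice, all bearing a transplantable tumor.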
# [1] = dose: 100.0 mg/kg/injection, schedule: Q04DX003 (ip), vehicle: Klucel (hydroxypropylcellulose) (HPC)
# [2] = dose: 200.0 mg/kg/injection, schedule: Q04DX003 (ip), vehicle: Klucel (hydroxypropylcellulose) (HPC)
# [3] = dose: 400.0 mg/kg/injection, schedule: Q04DX003 (ip), vehicle: Klucel (hydroxypropylcellulose) (HPC)
# [4] = dose: 100.0 mg/kg/injection, schedule: Q01DX009 (ip), vehicle: saline with Tween-80
# [5] = dose: 100.0 mg/kg/injection, schedule: Q04DX002 (ip), vehicle: saline with Tween-80
# [6] = dose: 200.0 mg/kg/injection, schedule: Q01DX009 (ip), vehicle: saline with Tween-80
# [7] = dose: 200.0 mg/kg/injection, schedule: Q04DX002 (ip), vehicle: saline with Tween-80
# [8] = dose: 400.0 mg/kg/injection, schedule: Q04DX002 (ip), vehicle: saline with Tween-80
# [9] = dose: 100.0 mg/kg/injection, schedule: Q01DX009 (ip), vehicle: saline
# [10] = dose: 200.0 mg/kg/injection, schedule: Q01DX009 (ip), vehicle: saline
# [11] = dose: 400.0 mg/kg/injection, schedule: Q01DX009 (ip), vehicle: saline
# [12] = dose: 50.0 mg/kg/injection, schedule: Q01DX009 (ip), vehicle: saline
# [13] = dose: 7.5 mg/kg/injection, schedule: Q01DX Z (ip), vehicle: saline
compound,measurement,setting,value
O=S(Cc1ccccc1)Cc1ccccc1,T/C,"dose: 50.0 mg/kg/injection, schedule: Q01DX001 (ip), vehicle: saline",110 % of control
same,T/C,"dose: 100.0 mg/kg/injection, schedule: Q01DX001 (ip), vehicle: saline",110 % of control
same,T/C,"dose: 100.0 mg/kg/injection, schedule: Q01DX009 (ip), vehicle: Klucel (hydroxypropylcellulose) (HPC)",103 % of control
same,T/C,[1],90 % of control
same,T/C,"dose: 200.0 mg/kg/injection, schedule: Q01DX001 (ip), vehicle: saline",103 % of control
same,T/C,"dose: 200.0 mg/kg/injection, schedule: Q01DX009 (ip), vehicle: Klucel (hydroxypropylcellulose) (HPC)",100 % of control
same,T/C,[2],97 % of control
same,T/C,"dose: 400.0 mg/kg/injection, schedule: Q01DX001 (ip), vehicle: saline",100 % of control
same,T/C,"dose: 400.0 mg/kg/injection, schedule: Q01DX009 (ip), vehicle: Klucel (hydroxypropylcellulose) (HPC)",102 % of control
same,T/C,[3],100 % of control
O=C(NC(=S)Nc1ccc([N+](=O)[O-])cc1Br)c1ccc(Cl)cc1Cl,T/C,[4],89 % of control and 90 % of control
same,T/C,[5],87 % of control and 90 % of control
same,T/C,[6],93 % of control and 90 % of control
same,T/C,[7],86 % of control and 92 % of control
same,T/C,"dose: 400.0 mg/kg/injection, schedule: Q01DX009 (ip), vehicle: saline with Tween-80",93 % of control and 95 % of control
same,T/C,[8],104 % of control and 92 % of control
CC(Cl)[N+](=O)[O-] (configuration not stated),T/C,[5],94 % of control
same,T/C,[7],94 % of control
same,T/C,[8],98 % of control
CO[N+](=O)c1cc(C(C)(C)C)c([O-])c(C(C)(C)C)c1,T/C,"dose: 100.0 mg/kg/injection, schedule: Q01DX001 (ip), vehicle: Klucel (hydroxypropylcellulose) (HPC)",88 % of control
same,T/C,"dose: 200.0 mg/kg/injection, schedule: Q01DX001 (ip), vehicle: Klucel (hydroxypropylcellulose) (HPC)",88 % of control
same,T/C,"dose: 400.0 mg/kg/injection, schedule: Q01DX001 (ip), vehicle: Klucel (hydroxypropylcellulose) (HPC)",92 % of control
CCOC(=O)C(O)C1(Cl)CCC(C(C)(C)C)CC1 (configuration not stated),T/C,"dose: 100.0 mg/kg/injection, schedule: Q04DX002 (ip), vehicle: saline",103 % of control
same,T/C,"dose: 200.0 mg/kg/injection, schedule: Q04DX002 (ip), vehicle: saline",106 % of control
same,T/C,"dose: 400.0 mg/kg/injection, schedule: Q04DX002 (ip), vehicle: saline",106 % of control
CN(C)Cc1cccc(-c2ccccc2)c1O,T/C,[9],107 % of control
same,T/C,[1],95 % of control
same,T/C,"dose: 100.0 mg/kg/injection, schedule: Q04DX003 (ip), vehicle: saline",100 % of control
same,T/C,[10],107 % of control
same,T/C,[2],98 % of control
same,T/C,"dose: 200.0 mg/kg/injection, schedule: Q04DX003 (ip), vehicle: saline",100 % of control
same,T/C,[11],103 % of control
same,T/C,[3],98 % of control
same,T/C,"dose: 400.0 mg/kg/injection, schedule: Q04DX003 (ip), vehicle: saline",100 % of control
O=C(c1ccccc1)C(c1ccccc1)C(O)(C(F)(F)F)C(F)(F)F (configuration not stated),T/C,[4],103 % of control
same,T/C,[6],97 % of control
O=C(OCCN1CCCCC1)C(c1ccccc1)C1(O)CCCC1 (configuration not stated),T/C,[12],106 % of control
same,T/C,[9],116 % of control
Cc1cc(C)c(C(=O)OC(c2ccccc2)C(C)c2ccccc2)c(C)c1 (configuration not stated),T/C,"dose: 75.0 mg/kg/injection, schedule: Q01DX001 (ip), vehicle: saline",94 % of control
same,T/C,"dose: 150.0 mg/kg/injection, schedule: Q01DX001 (ip), vehicle: saline",94 % of control
same,T/C,"dose: 300.0 mg/kg/injection, schedule: Q01DX001 (ip), vehicle: saline",89 % of control
Nc1cc(C(=O)Nc2cccc(C3=NCCN3)c2)ccc1C(=O)Nc1cccc(C2=NCCN2)c1,T/C,[13],113 % of control
same,T/C,"dose: 10.0 mg/kg/injection, schedule: Q01DX Z (ip), vehicle: saline",110 % of control
Cc1ccc(C(C)C)cc1NC(=O)/C=C/c1ccccc1,T/C,"dose: 6.25 mg/kg/injection, schedule: Q01DX009 (ip), vehicle: saline with Tween-80",97 % of control and 98 % of control
same,T/C,"dose: 12.5 mg/kg/injection, schedule: Q01DX009 (ip), vehicle: saline with Tween-80",97 % of control and 98 % of control
same,T/C,"dose: 25.0 mg/kg/injection, schedule: Q04DX003 (ip), vehicle: saline with Tween-80",88 % of control
same,T/C,"dose: 50.0 mg/kg/injection, schedule: Q01DX001 (ip), vehicle: saline with Tween-80",95 % of control
same,T/C,"dose: 50.0 mg/kg/injection, schedule: Q04DX003 (ip), vehicle: saline with Tween-80",88 % of control
same,T/C,"dose: 100.0 mg/kg/injection, schedule: Q01DX001 (ip), vehicle: saline with Tween-80",94 % of control
same,T/C,[5],93 % of control and 96 % of control
same,T/C,"dose: 100.0 mg/kg/injection, schedule: Q04DX003 (ip), vehicle: saline with Tween-80",88 % of control
same,T/C,"dose: 200.0 mg/kg/injection, schedule: Q01DX001 (ip), vehicle: saline with Tween-80",86 % of control and 87 % of control
same,T/C,[7],88 % of control and 90 % of control
same,T/C,"dose: 200.0 mg/kg/injection, schedule: Q04DX003 (ip), vehicle: saline with Tween-80",89 % of control
same,T/C,"dose: 400.0 mg/kg/injection, schedule: Q01DX001 (ip), vehicle: saline with Tween-80",94 % of control and 108 % of control
same,T/C,[8],96 % of control and 88 % of control
Cc1ccc(OCCOC(=O)COc2ccc(Cl)cc2Cl)cc1C,T/C,"dose: 100.0 mg/kg/injection, schedule: Q04DX002 (ip), vehicle: Klucel (hydroxypropylcellulose) (HPC)",102 % of control
same,T/C,"dose: 200.0 mg/kg/injection, schedule: Q04DX002 (ip), vehicle: Klucel (hydroxypropylcellulose) (HPC)",97 % of control
same,T/C,"dose: 400.0 mg/kg/injection, schedule: Q04DX002 (ip), vehicle: Klucel (hydroxypropylcellulose) (HPC)",102 % of control
Cc1coc(NS(=O)(=O)c2ccc(N=Nc3cc(N=Nc4ccccc4)c(N)nc3N)cc2)c1C,T/C,"dose: 100.0 mg/kg/injection, schedule: Q01DX001 (ip), vehicle: carboxymethylcellulose (CMC)",94 % of control
same,T/C,"dose: 200.0 mg/kg/injection, schedule: Q01DX001 (ip), vehicle: carboxymethylcellulose (CMC)",105 % of control
CC1CNC(c2ccc(NC(=O)c3ccc(C(=O)Nc4ccc(C5=NC(C)CN5)cc4)c(NC(=O)Nc4cccc(C5=NC(C)CN5)c4)c3)cc2)=N1 (configuration not stated),T/C,"dose: 1.88 mg/kg/injection, schedule: Q01DX Z (ip), vehicle: saline",116 % of control
same,T/C,"dose: 3.75 mg/kg/injection, schedule: Q01DX Z (oral), vehicle: saline",103 % of control
same,T/C,[13],153 % of control
same,T/C,"dose: 7.5 mg/kg/injection, schedule: Q01DX Z (oral), vehicle: saline",106 % of control
same,T/C,"dose: 15.0 mg/kg/injection, schedule: Q01DX Z (oral), vehicle: saline",101 % of control
same,T/C,"dose: 30.0 mg/kg/injection, schedule: Q01DX Z (oral), vehicle: saline",117 % of control
same,T/C,"dose: 62.5 mg/kg/injection, schedule: Q01DX010 (oral), vehicle: saline",99 % of control
same,T/C,"dose: 125.0 mg/kg/injection, schedule: Q01DX010 (oral), vehicle: saline",100 % of control
same,T/C,"dose: 250.0 mg/kg/injection, schedule: Q01DX010 (oral), vehicle: saline",92 % of control
O=[N+]([O-])C(Cl)(Cl)C(Cl)(Cl)[N+](=O)[O-],T/C,"dose: 2.5 mg/kg/injection, schedule: Q01DX009 (ip), vehicle: other",97 % of control
same,T/C,"dose: 2.5 mg/kg/injection, schedule: Q04DX003 (ip), vehicle: other",100 % of control
same,T/C,"dose: 5.0 mg/kg/injection, schedule: Q01DX001 (ip), vehicle: saline",94 % of control
same,T/C,"dose: 5.0 mg/kg/injection, schedule: Q01DX009 (ip), vehicle: other",95 % of control
same,T/C,"dose: 5.0 mg/kg/injection, schedule: Q04DX003 (ip), vehicle: other",102 % of control
same,T/C,"dose: 10.0 mg/kg/injection, schedule: Q01DX001 (ip), vehicle: saline",94 % of control
same,T/C,"dose: 10.0 mg/kg/injection, schedule: Q01DX009 (ip), vehicle: other",90 % of control
same,T/C,"dose: 10.0 mg/kg/injection, schedule: Q04DX003 (ip), vehicle: other",88 % of control
same,T/C,"dose: 20.0 mg/kg/injection, schedule: Q01DX001 (ip), vehicle: saline",92 % of control
same,T/C,"dose: 40.0 mg/kg/injection, schedule: Q01DX001 (ip), vehicle: saline",86 % of control
same,T/C,"dose: 80.0 mg/kg/injection, schedule: Q01DX001 (ip), vehicle: saline",100 % of control
O=C(O)CSC(CC(=O)O)C(=O)O (configuration not stated),T/C,[9],107 % of control
same,T/C,[10],108 % of control
same,T/C,[11],103 % of control
Cc1cccnc1Nc1ncccc1C,T/C,[12],100 % of control
same,T/C,[9],96 % of control
same,T/C,[10],103 % of control
